Tests used:
PC3-M cells = experiment: PCa subcutaneous implantation, tumor growth; assay type: in vivo; settings: oral 80 mg KBU2046/kg, weekly intraperitoneal docetaxel 20 mg/kg, KBU2046 added to control or docetaxel treated mice
Experimental: FIG. 1A depicts the effect of chemotherapy on the growth of androgen independent PC3-M PCa cells in vitro. Data are the mean±SEM (N=3 replicates) of cell viability in a 3 day growth assay in the presence of 10 μM KBU2046 or vehicle (control) treated with docetaxel or cabazitaxel. FIG. 1B depicts the effect of chemotherapy on the growth of androgen independent PCa cells in vivo. Mice received subcutaneous implants of PC3-M cells, were monitored until tumors were detectable (250 mm^3), and then treated daily with oral 80 mg KBU2046/kg (46) or vehicle (CO) and with weekly intraperitoneal docetaxel (doc) at 0 or 20 mg/kg, beginning on day 1, and tumor size measured. Data are mean±SEM, with N=20 mice per cohort.
PCa subcutaneous implantation: 2.5×10^5 PC3-M cells in sterile PBS were implanted into the right flank of 6-7 week old male athymic nude mice (Charles River) and tumor growth measurements were performed twice a week as previously described by us (Gordon et al., Chemotherapy-induced monoamine oxidase expression in prostate carcinoma functions as a cytoprotective resistance enzyme and associates with clinical outcomes. PLoS One 9, e104271 (2014)). […] Tumor measurements were obtained in a blinded fashion, and tumor volumes were calculated with the following formula: length×(width)^2×0.5.

PC3-M-luc cells = experiment: PCa orthotopic implantation, primary tumor growth and lung metastasis; assay type: in vivo, mice
Experimental: To assess the efficacy of a spectrum of docetaxel concentrations, mice received orthotopic implants of PC3-M-luc cells, were treated with 0, 10 or 20 mg/kg docetaxel, and tumor growth monitored with weekly IVIS imaging. […] Subsequently, mice with orthotopic implants of PC3-M-luc cells were treated with docetaxel, KBU2046, docetaxel+KBU2046 or vehicle, as denoted, and effects on primary tumor growth and lung metastasis quantified (FIGS. 2A, 2B, and 2C).
Cohorts of N=10 mice bearing orthotopic implants of PC3-M-luc cells were treated daily with 150 mg/kg KUB2046 (46), intraperitoneal docetaxel 7.5 mg/kg weekly (doc), the combination (doc+46), or with oral and intraperitoneal vehicle (CO). KBU2046 treatment began 3 days before implantation and docetaxel began 1 week after. (A) Lung metastasis measured by qPCR for human Alu sequences, expressed as percent control (B) Weekly IVIS imaging of tumor. (C) Tumor weight. * denotes P<0.05 for differences between cohorts denoted by bars. All data are mean±SEM.
PCa orthotopic implantation: Orthotopic implantation of 2.5×10^5 PC3M-luc into 7-8 week old male athymic mice was performed as previously described by us (5, 52 Xu et al., above; and Pavese et al., J Vis Exp, e50873 (2013)). Daily oral gavage treatment with 150 mg/kg KBU2046 or was initiated 3 days prior to implantation and continued throughout the duration of the study. Weekly IP injections with 7.5 mg/kg docetaxel or control were administered beginning one week post implantation. Primary tumor out growth was monitored via weekly IVIS imaging. At the completion of the study the primary tumor was resected and weighed and lungs were resected and snap frozen. To determine the human PCa metastatic burden in each mouse lung, the snap frozen tissue was pulverized, DNA isolated and Alu-sequencing performed as previously described (19). […] (SEQ ID NO: 3). The 144RH probe was labeled with a 5′ fluorescent reporter (6-FAM) and a 3′ fluorescent quencher (Black Hole Quencher). The relative content of human DNA was calculated with using the comparative CT method, CT (sample)-CT(negative control). All samples were run in triplicate and were repeated.

[1] = test system: prostate specific antigen (PSA); experiment: PSA expression by qRT/PCR in LNCaP cells; assay type: cell-based, human; settings: LNCaP cells in androgen depleted media
Experimental: (§1) Cells were cultured in media depleted of androgen and after a washout of 72 hrs were treated with the synthetic androgen R1881, KBU2046, enzalutamide and/or vehicle (control), and resultant effects upon induction of the androgen-responsive gene, prostate specific antigen (PSA) were measured (FIG. 3A).
(§2) LNCaP or VCaP cells cultured in hormone free media were treated with R1881 (R), KBU2046 (46) and/or enzalutamide (E). (FIGS. 3A and 3B) Effects on AR-responsive gene expression. PSA expression was measured by qRT/PCR, normalized to GAPDH and expressed as a percent of control cells (N=3 replicates); * denotes P<0.05 for groups separated by bar. (FIGS. 3C and 3D) Effects on cell growth. Three day growth assays were performed. Data are the number of viable cells, expressed as % of control (N=3 replicates); * P<0.05 compared to control. (E) Effects on AR activation. Western blots of nuclear (N) and cytoplasmic (C) preparations of cell extracts were probed for AR, laminin 1 or α-tubulin. (FIGS. 3F and 3G) Effects on tumor outgrowth after androgen deprivation therapy. LNCaP/AR-luc cells were implanted subcutaneously (N=6 mice/cohort) or orthotopic (N=15 mice/cohort were implanted; N=5 yielded tumors) into castrate mice, treatment with KBU2046 began as noted, and weekly IVIS imaging performed. Data are tumor size, expressed as luminescence intensity. All data are expressed as mean±SEM.
(§3) RNA was isolated and qRT/PCR performed as previously described by us (Ding et al., J Biomol Tech 18, 321-330 (2007)). Resultant data were analyzed using the 2^−ΔΔt method (Livak et al., Methods 25, 402-408 (2001)), normalized to GAPDH, for the following primer/probe sets (ABI) PSA (Hs02576345_m1) and GAPDH (Hs99999905_m1). Assays were performed in triplicate, and were repeated.

[2] = test system: prostate specific antigen (PSA); experiment: PSA expression by qRT/PCR in VCaP cells; assay type: cell-based, human; settings: VCaP cells in androgen depleted media
Experimental: as §1, §2, §3

LNCaP cells = experiment: SRB growth inhibition assay, LNCaP; assay type: cell-based, human; settings: 10 μM enzalutamide, 10 μM KBU2046 added to control or enzalutamide treated cells, 72 hours
Experimental: as §2
(§4) Enzalutamide mediated growth inhibition was assessed using Sulforhodamine B (SRB) growth inhibition assays, were performed as previously described (49). In brief, LNCaP and VCaP cells were pre-incubated in charcoal-striped medium for 48 hours and then seeded (1.9×10^4) in 96-well plates. […]

VCaP cells = experiment: SRB growth inhibition assay, VCaP; assay type: cell-based, human; settings: 10 μM enzalutamide, 10 μM KBU2046 added to control or enzalutamide treated cells, 72 hours
Experimental: as §2, §4

**Q.** For `CC(=O)O[C@@]12CO[C@@H]1C[C@H](O)[C@@]1(C)C(=O)[C@H](O)C3=C(C)[C@@H](OC(=O)[C@H](O)[C@@H](NC(=O)OC(C)(C)C)c4ccccc4)C[C@@](O)([C@@H](OC(=O)c4ccccc4)[C@H]21)C3(C)C` [docetaxel], which tumor growth (PC3-M cells) is on record?
**A.** The tumor growth was “significantly inhibited”.

**Q.** What about the “prostate tumor growth kinetics by weekly IVIS imaging” value (PC3-M-luc cells; cohorts receiving docetaxel 7.5 mg/kg weekly vs not) of the same compound?
**A.** Its value is “slower growth”.

**Q.** And the “tumor growth by weekly IVIS imaging” value (PC3-M-luc cells; orthotopic PC3-M-luc, 0, 10 or 20 mg/kg docetaxel, dose-dependent)?
**A.** The value was “significantly inhibited”.

**Q.** And the “decrease of tumor weight compared to control” value (PC3-M-luc cells; orthotopic PC3-M-luc, 150 mg/kg KBU2046 daily, docetaxel 7.5 mg/kg weekly)?
**A.** The value was 49%.

**Q.** What about the “decrease of lung metastasis compared to control (human Alu qPCR)” value (PC3-M-luc cells; orthotopic PC3-M-luc, 150 mg/kg KBU2046 daily, docetaxel 7.5 mg/kg weekly intraperitoneal) of the same compound?
**A.** Its value is 23%.

**Q.** For `CNC(=O)c1ccc(N2C(=S)N(c3ccc(C#N)c(C(F)(F)F)c3)C(=O)C2(C)C)cc1F` [enzalutamide], which PSA expression [1] is on record?
**A.** The PSA expression was “decreased”.

**Q.** What about the PSA expression [2] of the same compound?
**A.** Its PSA expression is “decreased”.

**Q.** What about the cell growth (LNCaP cells) of the same compound?
**A.** Its cell growth is “significantly inhibited”.

**Q.** And the cell growth (VCaP cells)?
**A.** Its cell growth is “significantly inhibited”.

— patent publication US20220133894A1, “BISPHOSPHONATE-LINKED COMPOUNDS” (OREGON HEALTH & SCIENCE UNIVERSITY, priority 2019, published 2022)
